For 13 compounds, TGI results are on record in PubChem BioAssay (NCI).

Structures are written as SMILES.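 Cultured in 96-well plates, cells were exposed to test compound for 48 hours across five concentrations. TGI denotes the concentration required for complete inhibition of growth.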 Where only a bound is given, the exact number is not on record here.

Some test systems named below: SK-OV-3 ovarian; SF-295 CNS; LXFL 529 NSCLC; DMS 114 small cell lung; A549 NSCLC; NCI-H460 lung; EKVX NSCLC; SF-268 CNS; UACC-62 melanoma; PC-3 prostate.
Holding throughout (test): NCI anticancer screen, dose series, 48 h

With `COc1ccc2nc3cc(Cl)ccc3c(Sc3ccc(N)cc3)c2c1`, the TGI in the assay with SK-OV-3 ovarian came out at 18.3 µM; in the assay with SF-295 CNS it was 38.9 µM; in the assay with LXFL 529 NSCLC, 16 µM; with DMS 114 small cell lung it was 19 µM; in the assay with A549 NSCLC, 30.1 µM; in the assay with NCI-H460 lung, 21.1 µM. For the same compound, the TGI in the assay with EKVX NSCLC was 25.4 µM; in the assay with SF-268 CNS it was 34.4 µM; in the assay on UACC-62 melanoma, 17.8 µM.
Turning to `O=C1c2ccccc2C(=O)c2c1ccc1conc21`, the TGI in the assay on SK-OV-3 ovarian was 13.3 µM; in the assay with SF-295 CNS it was 4.97 µM; with LXFL 529 NSCLC, 3.83 µM; with DMS 114 small cell lung, 3.42 µM; with A549 NSCLC, 11.2 µM; with NCI-H460 lung, 12.2 µM. For the same compound, the TGI amounted to 3.87 µM in the assay with EKVX NSCLC, 6.8 µM in the assay on SF-268 CNS, 5.63 µM in the assay with UACC-62 melanoma and 5.06 µM with PC-3 prostate.
For the compound `Cn1c(=O)nc2n(-c3ccc(Br)cc3)c3ccccc3nc-2c1=O`, the TGI was above 100 µM with SK-OV-3 ovarian; 17 µM in the assay on SF-295 CNS; 25.4 µM in the assay on LXFL 529 NSCLC; 4.39 µM in the assay on DMS 114 small cell lung; 15.1 µM with A549 NSCLC; 11.9 µM with NCI-H460 lung. Further, the results for the TGI with EKVX NSCLC, in the assay with SF-268 CNS and with UACC-62 melanoma were 7.3 µM, 31 µM and 3.01 µM, respectively.
Take `C=CCCC(O)c1cc(C)c(O)c(C)c1` (stereo not drawn): the TGI in the assay on SK-OV-3 ovarian, in the assay with SF-295 CNS, in the assay with LXFL 529 NSCLC, with DMS 114 small cell lung, with A549 NSCLC and in the assay with NCI-H460 lung was above 100 µM in each case. In addition, the TGI in the assay on EKVX NSCLC, with SF-268 CNS and in the assay with UACC-62 melanoma was above 100 µM in each case.
As for `COC1CCCc2c(OC(C)=O)ccc(OC(C)=O)c21` (stereo not drawn), the TGI in the assay on SK-OV-3 ovarian, in the assay with LXFL 529 NSCLC, with DMS 114 small cell lung, with A549 NSCLC, in the assay with SF-268 CNS and with UACC-62 melanoma was above 100 µM each time.
Take `COc1ccc2c(=O)c(-c3cc(OC)c(OC)cc3OC)coc2c1`: the TGI is above 44.1 µM in the assay with SK-OV-3 ovarian; 12.5 µM in the assay on SF-295 CNS; above 100 µM in the assay on LXFL 529 NSCLC; above 24.6 µM in the assay on DMS 114 small cell lung; above 100 µM in the assay with A549 NSCLC; above 100 µM in the assay on NCI-H460 lung. For the same compound, the TGI in the assay on EKVX NSCLC, in the assay with SF-268 CNS, in the assay on UACC-62 melanoma and with PC-3 prostate was above 100 µM throughout.
For `O=c1[nH]c2nc3ccccc3c(=O)n2nc1Cc1ccccc1`, the TGI in the assay with SK-OV-3 ovarian, in the assay on SF-295 CNS, with LXFL 529 NSCLC, in the assay on DMS 114 small cell lung, with A549 NSCLC and with NCI-H460 lung was above 100 µM throughout. Further, the TGI in the assay with EKVX NSCLC, with SF-268 CNS and in the assay on UACC-62 melanoma was above 100 µM each time.
In the case of `N#CN1CC[C@@H]2CC3(CCC2C1)OCCO3` (stereo partly drawn), the TGI in the assay with SK-OV-3 ovarian, in the assay on SF-295 CNS, with LXFL 529 NSCLC, in the assay with DMS 114 small cell lung, in the assay on A549 NSCLC and with NCI-H460 lung was above 100 µM throughout. The TGI in the assay with EKVX NSCLC, in the assay with SF-268 CNS and with UACC-62 melanoma was above 100 µM throughout.
For the compound `O=C(c1ccccc1)c1nc2c(Cl)ccc(Cl)c2cc1C(Br)Br`, the TGI amounted to 2.6 µM in the assay on SF-295 CNS; 1.55 µM in the assay with LXFL 529 NSCLC; 6.19 µM with DMS 114 small cell lung; 13.4 µM in the assay with A549 NSCLC; 2.96 µM in the assay on SF-268 CNS; 3.01 µM in the assay on UACC-62 melanoma.
On to `CC(=O)CC[N+](C)(C)C`, for which the TGI in the assay on SK-OV-3 ovarian was 51.9 µM; in the assay with SF-295 CNS, above 100 µM; in the assay on LXFL 529 NSCLC, 27.2 µM; in the assay on A549 NSCLC, above 94.6 µM; in the assay with NCI-H460 lung, above 90 µM; in the assay with EKVX NSCLC it was 28.9 µM. Moreover, the TGI turned out to be 76.8 µM with SF-268 CNS, 52.4 µM with UACC-62 melanoma and 99.5 µM in the assay with PC-3 prostate.
With `C=CC[P@]1(=O)O[C@H](c2ccccc2)C(C)N1C(C)C` (stereo partly drawn), the TGI with SK-OV-3 ovarian, with SF-295 CNS, in the assay with LXFL 529 NSCLC, in the assay on DMS 114 small cell lung, in the assay with A549 NSCLC and in the assay with NCI-H460 lung was above 100 µM each time. The TGI in the assay on EKVX NSCLC, with SF-268 CNS and in the assay on UACC-62 melanoma was above 100 µM throughout.
With `CCOC(=O)c1ccc(N=Cc2ccc(N(CCC#N)S(=O)(=O)c3ccccc3)cc2C)cc1`, the TGI with SK-OV-3 ovarian, with SF-295 CNS, in the assay with LXFL 529 NSCLC, in the assay on DMS 114 small cell lung, with A549 NSCLC and in the assay on EKVX NSCLC was above 100 µM each time. Also, the TGI with SF-268 CNS and with UACC-62 melanoma was above 100 µM in each case.
With `O=C(O)CCC(O)=C1S(=O)(=O)OCCOS1(=O)=O`, the TGI in the assay with SK-OV-3 ovarian, in the assay on SF-295 CNS, with LXFL 529 NSCLC, in the assay with DMS 114 small cell lung, in the assay on A549 NSCLC and with NCI-H460 lung was above 100 µM throughout. The TGI in the assay on EKVX NSCLC, in the assay with SF-268 CNS, in the assay on UACC-62 melanoma and in the assay on PC-3 prostate was above 100 µM each time.
